Test results as given in US8012974B2, “Pyrrolopyrazinyl urea kinase inhibitors” (Roche Palo Alto LLC, priority 2008, dated 2011).

Target: T1, JAK3: Recombinant human kinase domain (810-1124) (Homo sapiens, UniProt P52333)
T1 construct: JAK3: Recombinant human kinase domain (810-1124); made in house
Assay: Determination of IC50 of Janus Kinase (JAK) inhibition, JAK3, radioactive end-point assay with 33P-ATP
Format: biochemical
Details: no additive; 0.1 nM JAK3, ATP 1.5 uM, peptide 50 uM, 20 minutes; read-out: Ic50 h-jak3-sf21-c: no additive
Text: Determination of IC50 of Janus Kinase (JAK) Inhibition:
Enzymes and peptide substrate used are described below: • JAK1: Recombinant human kinase domain (866-1154) from Invitrogen (Cat # PV4774) • JAK3: Recombinant human kinase domain (810-1124) made in house by Roche Palo Alto • JAK2: Recombinant human kinase domain (808-1132) from Millipore (Cat # 14-640) • Substrate: N-terminally biotinylated 14-mer peptide derived from activation loop of JAK1 with sequence of the peptide substrate: Biotin-[sequence]
Assay conditions used are described below: • Assay Buffer: JAK Kinase Buffer: 50 mM Hepes [pH 7.2], 10 mM MgCl2, 1 mM DTT, 1 mg/ml BSA. The assay is carried out in this buffer. • Assay Format The kinase activity of all three JAK kinases is measured using a radioactive, end-point assay and with trace amounts of ^33P-ATP. The assays are carried out in 96-well polypropylene plates. Experimental Method:
All concentrations are final in the reaction mixture and all incubations are carried at room temperature. […] 1 wash with water. • 6) Washed plates are dried in a 60° C. oven for between 1 to 2 hours. • 7) 70 ul of Microscint 20 scintillation fluid is added to each well of filter plates and after at least 30 minutes of incubation, radioactive counts are measured in a Perkinelmer microplate scintillation counter.

T1 sequence (P52333 810-1124): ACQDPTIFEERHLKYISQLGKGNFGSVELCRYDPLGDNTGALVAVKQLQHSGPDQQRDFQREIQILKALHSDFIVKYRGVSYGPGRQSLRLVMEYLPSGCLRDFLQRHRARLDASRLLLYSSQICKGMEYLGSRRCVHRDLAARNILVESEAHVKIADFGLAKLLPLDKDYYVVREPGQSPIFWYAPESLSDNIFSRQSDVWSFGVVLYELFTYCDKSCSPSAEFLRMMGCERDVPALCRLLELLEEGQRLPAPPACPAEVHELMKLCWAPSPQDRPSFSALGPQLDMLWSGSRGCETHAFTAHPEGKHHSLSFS

Compound	IC50 [nM]
O=C(NCCc1ccccc1)Nc1cnc2[nH]ccc2n1 [Compound I-10, 1-Phenethyl-3-(5H-pyrrolo[2,3-b]pyrazin-2-yl)-urea]	144
O=C(NCC1CCCCC1)Nc1cnc2[nH]ccc2n1 [Compound I-6, 1-Cyclohexylmethyl-3-(5H-pyrrolo[2,3-b]pyrazin-2-yl)-urea]	326
